From patent publication US20240116985A1, “STAPLED PEPTIDES AND METHODS THEREOF” (priority 2020, published 2024)
Read-outs that look alike come from different tables or passages of the source.

Columns and labels:
[1] = molecular target: T1, full-length beta-Catenin (Uniprot ID P35222) (Homo sapiens, UniProt P35222); assay: Fluorescence polarization IC50 (beta-catenin / 5FAM-TCF4 10-53 competition); type: binding
T1 construct: 10 nM full-length beta-Catenin (Uniprot ID P35222)
T1 sequence (P35222 1-781): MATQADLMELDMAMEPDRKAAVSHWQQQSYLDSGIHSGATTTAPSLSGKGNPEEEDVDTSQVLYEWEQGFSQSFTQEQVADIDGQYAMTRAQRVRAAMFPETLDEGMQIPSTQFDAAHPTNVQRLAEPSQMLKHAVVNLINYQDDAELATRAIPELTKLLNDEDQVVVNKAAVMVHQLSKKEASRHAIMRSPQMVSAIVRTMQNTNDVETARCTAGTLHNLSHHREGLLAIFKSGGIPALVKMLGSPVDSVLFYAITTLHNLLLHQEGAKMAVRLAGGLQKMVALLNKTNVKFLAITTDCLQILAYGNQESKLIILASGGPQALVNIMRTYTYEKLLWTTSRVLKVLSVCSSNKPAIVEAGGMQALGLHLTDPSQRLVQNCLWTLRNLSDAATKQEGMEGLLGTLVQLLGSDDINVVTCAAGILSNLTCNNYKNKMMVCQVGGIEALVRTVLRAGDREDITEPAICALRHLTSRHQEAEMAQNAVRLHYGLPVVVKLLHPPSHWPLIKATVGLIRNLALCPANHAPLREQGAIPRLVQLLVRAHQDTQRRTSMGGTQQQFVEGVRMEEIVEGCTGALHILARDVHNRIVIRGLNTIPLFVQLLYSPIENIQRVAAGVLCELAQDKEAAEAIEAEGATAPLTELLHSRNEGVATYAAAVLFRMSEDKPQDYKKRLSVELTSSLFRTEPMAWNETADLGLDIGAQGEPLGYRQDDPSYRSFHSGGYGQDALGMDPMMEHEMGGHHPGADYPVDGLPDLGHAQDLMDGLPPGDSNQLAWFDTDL

CHI Log D procedure = type: physicochemical; details: for CHI Log D: pH 7.4; for chromatographic logD: pH 7.4, CHI Log D
[2] = molecular target: T2, beta-catenin/TCF4 engagement (Homo sapiens, UniProt P35222); assay: Nano-BRET target engagement assay (B-cat-Halo & TCF4-Luc in HEK293 cells); type: cell-based
T2 construct: expressed in transfected cells; host or cells: HEK293
T2 sequence (P35222 1-781): T1 sequence (P35222 1-781)

[3] = fluorescence polarization, beta-catenin, read-out: FP EC50

Row | IC50 [1, 3] [nM] | IC50 ([1]; read-out: beta-Catenin FP IC50) [nM] | CHI Log D (CHI Log D procedure) | IC50 ([2]; read-out: NanoBRET Abs IC50) [µM] | chromatographic logD (CHI Log D procedure) | IC50 ([2]; read-out: NanoBRET IC50) [µM] | IC50 ([2]; Abs IC50, read-out: NanoBRET Abs IC50) [µM] | Compound
1 | 10 | 10 | −0.008 | 23.8 | – | – | – | CC(=O)N1CCC[C@]12CC=CCCCC1(CCCC=CCCCOC(=O)N3CC[C@@](C(=O)N[C@@H](Cc4ccsc4)C(=O)N[C@@H](Cc4csc5ccccc45)C(=O)N[C@@H](CCC(N)=O)C(=O)NCCCCCCN)(C3)NC(=O)[C@H](CC(N)=O)NC(=O)[C@H](Cc3ccccc3)NC(=O)[C@H](C)NC(=O)[C@H](C)NC(=O)[C@H](CC(=O)O)NC(=O)[C@H](CC(=O)O)NC1=O)NC(=O)[C@H](CC(C)(C)C)NC(=O)[C@H](CC(=O)O)NC2=O (stereo partly drawn) [I-881, Ac-PL3-Asp-Npg-B5-Asp-Asp-Ala-Ala-Phe-Asn-PyrS2-3Thi-BztA-Gln-6AmHex]
2 | – | 12 | – | 22.9 | 1.82 | – | – | COCCOCCC(=O)NCCCC[C@H](NC(=O)[C@H](CCC(N)=O)NC(=O)[C@H](Cc1csc2ccccc12)NC(=O)[C@H](Cc1ccsc1)NC(=O)[C@]12CCN(C1)C(=O)OCCCC=CCCCC1(CCCC=CC[C@]3(CCCN3C(C)=O)C(=O)N[C@@H](CC(=O)O)C(=O)N[C@@H](CC(C)(C)C)C(=O)N1)C(=O)N[C@@H](CC(=O)O)C(=O)N[C@@H](CC(=O)O)C(=O)N[C@@H](C)C(=O)N[C@@H](C)C(=O)N[C@@H](Cc1ccccc1)C(=O)N[C@@H](CC(N)=O)C(=O)N2)C(N)=O (stereo partly drawn) [I-911, Ac-PL3-Asp-Npg-B5-Asp-Asp-Ala-Ala-Phe-Asn-PyrS2-3Thi-BztA-Gln-[mPEG2]Lys-NH2]
3 | – | 37 | – | 13.5 | 2.96 | 5.6 | – | CC(=O)N1CCC[C@]12CC=CCCCC1(CCCC=CCCCCCC[C@@](C)(C(=O)N[C@@H](Cc3ccccc3Cl)C(=O)N[C@@H](Cc3csc4ccccc34)C(=O)N[C@@H](CCC(N)=O)C(N)=O)NC(=O)[C@H]([C@@H](C)O)NC(=O)[C@H](Cc3ccccc3)NC(=O)[C@H](C)NC(=O)[C@H](C)NC(=O)[C@H](CN(CC(=O)O)CC(F)(F)F)NC(=O)[C@H](CC(=O)O)NC1=O)NC(=O)[C@H](CC(C)(C)C)NC(=O)[C@H](CC(=O)O)NC2=O (stereo partly drawn) [I-930, Ac-PL3-Asp-Npg-B5-Asp-TfeGA-Ala-Ala-Phe-Thr-S8-2C1F-BztA-Gln-NH2]
4 | – | 17 | – | 6.8 | 2.45 | – | – | CC(=O)N1CCC[C@]12CC=CCCCC1(CCCC=CCCCOC(=O)N3CC[C@@](C(=O)N[C@@H](Cc4ccsc4)C(=O)N[C@@H](Cc4csc5ccccc45)C(=O)N[C@@H](CCC(N)=O)C(N)=O)(C3)NC(=O)[C@H](CC(C)C)NC(=O)[C@H](Cc3ccccc3)NC(=O)[C@H](C)NC(=O)[C@H](C)NC(=O)[C@H](CC(N)=O)NC(=O)[C@H](CC(=O)O)NC1=O)NC(=O)[C@H](CC(C)(C)C)NC(=O)[C@H](CC(=O)O)NC2=O (stereo partly drawn) [I-856, Ac-PL3-Asp-Npg-B5-Asp-Asn-Ala-Ala-Phe-Leu-PyrS2-3Thi-BztA-Gln-NH2]
5 | – | 5 | 2.358 | 13.7 | – | – | 13.7 | CC(=O)N1CCC[C@]12CC=CCCCC1(CCCC=CCCCOC(=O)N3CC[C@@](C(=O)N[C@@H](Cc4ccsc4)C(=O)N[C@@H](Cc4csc5ccccc45)C(=O)N[C@@H](Cc4c[nH]cn4)C(N)=O)(C3)NC(=O)[C@H](CC(N)=O)NC(=O)[C@H](Cc3ccccc3)NC(=O)[C@H](C)NC(=O)[C@H](C)NC(=O)[C@H](CN(CC(=O)O)CC(F)(F)F)NC(=O)[C@H](CC(=O)O)NC1=O)NC(=O)[C@H](CC(C)(C)C)NC(=O)[C@H](CC(=O)O)NC2=O (stereo partly drawn) [I-770, Ac-PL3-Asp-Npg-B5-Asp-TfeGA-Ala-Ala-Phe-Asn-PyrS2-3Thi-BztA-His-NH2]
6 | – | 23 | – | 10.3 | 2.74 | 7 | – | CC(=O)N1CCC[C@]12CC=CCCCC1(CCCC=CCCCCCC[C@@](C)(C(=O)N[C@@H](Cc3ccccc3Cl)C(=O)N[C@@H](Cc3csc4ccccc34)C(=O)N[C@@H](CCC(N)=O)C(N)=O)NC(=O)[C@H](CC(N)=O)NC(=O)[C@H](Cc3ccccc3)NC(=O)[C@H](C)NC(=O)[C@H](C)NC(=O)[C@H](CN(CC(=O)O)CC(F)(F)F)NC(=O)[C@H](CC(=O)O)NC1=O)NC(=O)[C@H](CC(C)(C)C)NC(=O)[C@H](CC(=O)O)NC2=O (stereo partly drawn) [I-929, Ac-PL3-Asp-Npg-B5-Asp-TfeGA-Ala-Ala-Phe-Asn-S8-2C1F-BztA-Gln-NH2]
7 | 14 | 14 | 2.08 | 33.7 | – | – | – | CC(=O)N1CCC[C@]12CC=CCCCC1(CCCC=CCCCCOC(=O)N3CC[C@@](C(=O)N[C@@H](Cc4ccsc4)C(=O)N[C@@H](Cc4csc5ccccc45)C(=O)N[C@@H](CC(N)=O)C(=O)N[C@H](C)C(N)=O)(C3)NC(=O)[C@H](CC(N)=O)NC(=O)[C@H](Cc3ccccc3)NC(=O)[C@H](C)NC(=O)[C@H](C)NC(=O)[C@H](CC(=O)O)NC(=O)[C@H](CC(=O)O)NC1=O)NC(=O)[C@H](CC(C)(C)C)NC(=O)[C@H](CC(=O)O)NC2=O (stereo partly drawn) [I-834, Ac-PL3-Asp-Npg-B5-Asp-Asp-Ala-Ala-Phe-Asn-PyrS3-3Thi-BztA-Asn-dAla-NH2]
8 | 43 | 43 | 2.406 | – | – | 17.1 | – | CC(=O)N1CCC[C@]12CC=CCCCC1(CCCC=CCCCOC(=O)N3CC[C@@](C(=O)N[C@@H](Cc4cccc(Cl)c4)C(=O)N[C@@H](Cc4csc5ccccc45)C(=O)N[C@@H](CCC(N)=O)C(N)=O)(C3)NC(=O)[C@H](CC(N)=O)NC(=O)[C@H](Cc3ccccc3)NC(=O)[C@H](C)NC(=O)[C@H](C)NC(=O)[C@H](CN(CC(=O)O)CC(F)(F)F)NC(=O)[C@H](CC(=O)O)NC1=O)NC(=O)[C@H](CC(C)(C)C)NC(=O)[C@H](CC(=O)O)NC2=O (stereo partly drawn) [I-926, Ac-PL3-Asp-Npg-B5-Asp-TfeGA-Ala-Ala-Phe-Asn-PyrS2-3C1F-BztA-Gln-NH2]
9 | – | 29 | – | 16.6 | 2.46 | – | – | CC(=O)N1CCC[C@]12CC=CCCCC1(CCCC=CCCCOC(=O)N3CC[C@@](C(=O)N[C@@H](Cc4ccccc4Cl)C(=O)N[C@@H](Cc4csc5ccccc45)C(=O)N[C@@H](C(N)=O)[C@H](C)O)(C3)NC(=O)[C@H](CO)NC(=O)[C@H](Cc3ccccc3)NC(=O)[C@H](C)NC(=O)[C@H](C)NC(=O)[C@H](CCC(=O)O)NC(=O)[C@H](CC(=O)O)NC1=O)NC(=O)[C@H](CC(C)(C)C)NC(=O)[C@H](CC(=O)O)NC2=O (stereo partly drawn) [I-1036, Ac-PL3-Asp-Npg-B5-Asp-Glu-Ala-Ala-Phe-Ser-PyrS2-2C1F-BztA-dThr-NH2]
10 | 21 | 21 | 2.344 | 20 | – | – | – | CC(=O)N1CCC[C@]12CC=CCCCC1(CCCC=CCCCOC(=O)N3CC[C@@](C(=O)N[C@@H](Cc4cccc(Cl)c4)C(=O)N[C@@H](Cc4csc5ccccc45)C(=O)N[C@@H](CCC(N)=O)C(N)=O)(C3)NC(=O)[C@H](CC(N)=O)NC(=O)[C@H](Cc3ccccc3)NC(=O)[C@H](C)NC(=O)[C@H](C)NC(=O)[C@H](CN(CC(=O)O)CC(F)(F)F)NC(=O)[C@H](CC(=O)O)NC1=O)NC(=O)[C@H](CC(C)(C)C)NC(=O)[C@H](CC(=O)O)NC2=O (stereo partly drawn) [I-925, Ac-PL3-Asp-Npg-B5-Asp-TfeGA-Ala-Ala-Phe-Asn-PyrS2-3C1F-BztA-Gln-NH2]
11 | – | 5 | 2.031 | 37.3 | – | – | – | CC(=O)N1CCC[C@]12CC=CCCCC1(CCCC=CCCCOC(=O)N3CC[C@@](C(=O)N[C@@H](Cc4ccsc4)C(=O)N[C@@H](Cc4csc5ccccc45)C(=O)N[C@@H](Cc4c[nH]cn4)C(N)=O)(C3)NC(=O)[C@H](CCC(N)=O)NC(=O)[C@H](Cc3ccccc3)NC(=O)[C@H](C)NC(=O)[C@H](C)NC(=O)[C@H](CC(=O)O)NC(=O)[C@H](CC(=O)O)NC1=O)NC(=O)[C@H](CC(C)(C)C)NC(=O)[C@H](CC(=O)O)NC2=O (stereo partly drawn) [I-771, Ac-PL3-Asp-Npg-B5-Asp-Asp-Ala-Ala-Phe-Gln-PyrS2-3Thi-BztA-His-NH2]
12 | 9 | 9 | 2.095 | 39.8 | – | – | – | CC(=O)N1CCC[C@]12CC=CCCCC1(CCCC=CCCCCOC(=O)N3CC[C@@](C(=O)N[C@@H](Cc4ccsc4)C(=O)N[C@@H](Cc4csc5ccccc45)C(=O)N[C@@H](Cc4c[nH]cn4)C(=O)N[C@H](C)C(N)=O)(C3)NC(=O)[C@H](CC(N)=O)NC(=O)[C@H](Cc3ccccc3)NC(=O)[C@H](C)NC(=O)[C@H](C)NC(=O)[C@H](CC(=O)O)NC(=O)[C@H](CC(=O)O)NC1=O)NC(=O)[C@H](CC(C)(C)C)NC(=O)[C@H](CC(=O)O)NC2=O (stereo partly drawn) [I-832, Ac-PL3-Asp-Npg-B5-Asp-Asp-Ala-Ala-Phe-Asn-PyrS3-3Thi-BztA-His-dAla-NH2]
